In ChEMBL document CHEMBL1153480, “Study on the potential anti-cancer activity of phosphonium and ammonium-based ionic liquids” (2009):

Columns and labels:
Type in all cases: functional
NCI-H322M = assay: Cytotoxicity against human NCI-H322M cells by SRB assay; conditions: read-out: LC50 (the source's name)
[1] = Cytotoxicity against human CAKI cells by SRB assay; conditions: read-out: LC50 (the source's name)
ACHN = assay: Cytotoxicity against human ACHN cells by SRB assay; conditions: read-out: LC50 (the source's name)
LOX IMVI = assay: Cytotoxicity against human LOXIMVI cells by SRB assay; conditions: read-out: LC50 (the source's name)
RPMI-8226 = assay: Cytotoxicity against human RPMI8226 cells by SRB assay; conditions: read-out: LC50 (the source's name)
MCF7 = assay: cells; conditions: Homo sapiens
Description: Growth inhibition of human MCF7 cells assessed as cell growth at 10 uM by SRB assay

SN12C = assay: Cytotoxicity against human SN12C cells by SRB assay; conditions: read-out: LC50 (the source's name)
KM12 = assay: Cytotoxicity against human KM12 cells by SRB assay; conditions: read-out: LC50 (the source's name)
U-251 = assay: Cytotoxicity against human U251 cells by SRB assay; conditions: read-out: LC50 (the source's name)
SNB-19 = assay: cells; conditions: Homo sapiens
Description: Growth inhibition of human SNB19 cells assessed as drug level required for 50% reduction in net protein increase by SRB assay relative to control

NCI-H522 = assay: Cytotoxicity against human NCI-H522 cells by SRB assay; conditions: read-out: LC50 (the source's name)
MDA-MB-231 = assay: Cytotoxicity against human MDA-MB-231 cells by SRB assay; conditions: read-out: LC50 (the source's name)
Malme-3M = assay: cells; conditions: Homo sapiens
Description: Growth inhibition of human MALME-3M cells assessed as drug level required for 50% reduction in net protein increase by SRB assay relative to control

IGROV-1 [2] = assay: Cytotoxicity against human IGROV1 cells by SRB assay; conditions: read-out: LC50 (the source's name)
SK-MEL-28 = assay: cells; conditions: Homo sapiens
Description: Growth inhibition of human SK-MEL-28 cells assessed as cell growth at 10 uM by SRB assay

BT-549 [3] = assay: cells; conditions: Homo sapiens
Description: Growth inhibition of human BT549 cells assessed as drug level required for 50% reduction in net protein increase by SRB assay relative to control

TK-10 = assay: Cytotoxicity against human TK10 cells by SRB assay; conditions: read-out: LC50 (the source's name)
SNB-75 = assay: Cytotoxicity against human SNB75 cells by SRB assay; conditions: read-out: LC50 (the source's name)
A498 = assay: Cytotoxicity against human A498 cells by SRB assay; conditions: read-out: LC50 (the source's name)
CCRF-CEM = assay: Cytotoxicity against human CCRF-CEM cells by SRB assay; conditions: read-out: LC50 (the source's name)
HOP-92 = assay: Cytotoxicity against human HOP92 cells by SRB assay; conditions: read-out: LC50 (the source's name)
UACC-257 = assay: Cytotoxicity against human UACC257 cells by SRB assay; conditions: read-out: LC50 (the source's name)
SK-MEL-5 = assay: Cytotoxicity against human SK-MEL-5 cells by SRB assay; conditions: read-out: LC50 (the source's name)
NCI-H226 = assay: Cytotoxicity against human NCI-H226 cells by SRB assay; conditions: read-out: LC50 (the source's name)
EKVX = assay: Cytotoxicity against human EKVX cells by SRB assay; conditions: read-out: LC50 (the source's name)
SF-539 = assay: Cytotoxicity against human SF539 cells by SRB assay; conditions: read-out: LC50 (the source's name)
SK-MEL-2 = assay: Cytotoxicity against human SK-MEL-2 cells by SRB assay; conditions: read-out: LC50 (the source's name)
UACC-62 = assay: Cytotoxicity against human UACC62 cells by SRB assay; conditions: read-out: LC50 (the source's name)
NCI/ADR-RES = assay: Cytotoxicity against human NCI/ADR-RES cells by SRB assay; conditions: read-out: LC50 (the source's name)
HL-60(TB) = assay: Cytotoxicity against human HL-60(TB) cells by SRB assay; conditions: read-out: LC50 (the source's name)
OVCAR-5 = assay: Cytotoxicity against human OVCAR5 cells by SRB assay; conditions: read-out: LC50 (the source's name)
786-0 = assay: cells; conditions: Homo sapiens
Description: Growth inhibition of human 786-0 cells assessed as cell growth at 10 uM by SRB assay

HCT-15 = assay: Cytotoxicity against human HCT15 cells by SRB assay; conditions: read-out: LC50 (the source's name)
BT-549 [4] = assay: cells; conditions: Homo sapiens; remark: listed apart in the source
Description: Growth inhibition of human BT549 cells assessed as cell growth at 10 uM by SRB assay

IGROV-1 [5] = assay: cells; conditions: Homo sapiens
Description: Growth inhibition of human IGROV1 cells assessed as cell growth at 10 uM by SRB assay

With `CCCCCCCCCCCCCCCCCCPCCCCCCCCCCCCCC.O=S(=O)(NS(=O)(=O)C(F)(F)F)C(F)(F)F` (stereo not given) the CC50 (NCI-H322M) was over 100 µM, the CC50 [1] was over 100 µM and the CC50 (ACHN) was over 100 µM. For the same molecule, the CC50 (LOX IMVI) was 0.592 µM, the CC50 (RPMI-8226) was 0.098 µM and the growth at 10 µM (MCF7) was -51.8%. For the same molecule, the CC50 (SN12C) was 4.44 µM, the CC50 (KM12) was over 100 µM and the CC50 (U-251) was 5.62 µM. The GI50 (SNB-19) was 0.069 µM, the CC50 (NCI-H522) was over 100 µM and the CC50 (MDA-MB-231) was over 100 µM. For the same molecule, the GI50 (Malme-3M) was 0.029 µM, the CC50 (IGROV-1 [2]) was over 100 µM and the growth at 10 µM (SK-MEL-28) was -97.8%. The GI50 (BT-549 [3]) was 0.066 µM, the CC50 (TK-10) was over 100 µM and the CC50 (SNB-75) was over 100 µM. The CC50 (A498) was over 100 µM, the CC50 (CCRF-CEM) was 8.46 µM and the CC50 (HOP-92) was over 100 µM. It also gave a CC50 (UACC-257) of over 100 µM, a CC50 (SK-MEL-5) of 0.829 µM and a CC50 (NCI-H226) of over 100 µM. The CC50 (EKVX) was over 100 µM, the CC50 (SF-539) was over 100 µM and the CC50 (SK-MEL-2) was over 100 µM. For the same molecule, the CC50 (UACC-62) was over 100 µM, the CC50 (NCI/ADR-RES) was over 100 µM and the CC50 (HL-60(TB)) was 0.711 µM. For the same molecule, the CC50 (OVCAR-5) was over 100 µM, the growth at 10 µM (786-0) was -65.8% and the CC50 (HCT-15) was over 100 µM.

In the case of `CCCCCCCC[N+](C)(CCCCCCCC)CCCCCCCC.O=S(=O)([N-]S(=O)(=O)C(F)(F)F)C(F)(F)F`, the CC50 (NCI-H322M) is reported as 6.12 µM, the CC50 [1] is reported as 3.28 µM and the CC50 (ACHN) is reported as 4.52 µM. For the same molecule, the CC50 (LOX IMVI) was 1.08 µM, the CC50 (RPMI-8226) was 0.951 µM and the growth at 10 µM (MCF7) was -100%. It also gave a CC50 (SN12C) of 4.06 µM, a CC50 (KM12) of 5.31 µM and a CC50 (U-251) of 4.32 µM. The GI50 (SNB-19) was 0.587 µM, the CC50 (NCI-H522) was 5.4 µM and the CC50 (MDA-MB-231) was 3.63 µM. The GI50 (Malme-3M) was 0.29 µM, the CC50 (IGROV-1 [2]) was over 100 µM and the growth at 10 µM (SK-MEL-28) was -100%. It also gave a GI50 (BT-549 [3]) of 0.421 µM, a CC50 (TK-10) of 4.86 µM and a CC50 (SNB-75) of 3.77 µM. For the same molecule, the CC50 (A498) was 6.36 µM, the CC50 (CCRF-CEM) was 2.44 µM and the CC50 (HOP-92) was 4.47 µM. The CC50 (UACC-257) was 6.16 µM, the CC50 (SK-MEL-5) was 0.677 µM and the CC50 (NCI-H226) was 4.41 µM. For the same molecule, the CC50 (EKVX) was 4.31 µM, the CC50 (SF-539) was 4.19 µM and the CC50 (SK-MEL-2) was over 100 µM. The CC50 (UACC-62) was 4.1 µM, the CC50 (NCI/ADR-RES) was 8.13 µM and the CC50 (HL-60(TB)) was 1.23 µM. The CC50 (OVCAR-5) was 8.17 µM, the growth at 10 µM (786-0) was -95.8% and the CC50 (HCT-15) was 5.23 µM.

In the case of `CCCCCCCCCCCCCCCCCCPCCCCCCCCCCCCCC` (stereo not given) [MONO(OCTADECYL(TETRADECYL)PHOSPHONIUM) MONO(HEXAFLUOROPHOSPHATE(V)) MONO(TETRAFLUOROBORATE)], the CC50 [1] is reported as over 100 µM, the growth at 10 µM (BT-549 [4]) is reported as -83.5% and the growth at 10 µM (MCF7) is reported as -40.8%. The growth at 10 µM (IGROV-1 [5]) was -19.6%, the CC50 (KM12) was over 100 µM and the GI50 (SNB-19) was 0.097 µM. It also gave a CC50 (NCI-H522) of over 100 µM, a GI50 (Malme-3M) of 0.034 µM and a CC50 (IGROV-1 [2]) of over 100 µM. For the same molecule, the growth at 10 µM (SK-MEL-28) was -69.3%, the GI50 (BT-549 [3]) was 0.094 µM and the CC50 (SNB-75) was over 100 µM. For the same molecule, the CC50 (SK-MEL-2) was over 100 µM and the growth at 10 µM (786-0) was -74%.
